Target: T1, recombinant human (rh) ZBTB16 protein (Homo sapiens, UniProt Q05516)
T1 construct: recombinant human protein immobilised on sensor
T1 sequence (Q05516 1-673): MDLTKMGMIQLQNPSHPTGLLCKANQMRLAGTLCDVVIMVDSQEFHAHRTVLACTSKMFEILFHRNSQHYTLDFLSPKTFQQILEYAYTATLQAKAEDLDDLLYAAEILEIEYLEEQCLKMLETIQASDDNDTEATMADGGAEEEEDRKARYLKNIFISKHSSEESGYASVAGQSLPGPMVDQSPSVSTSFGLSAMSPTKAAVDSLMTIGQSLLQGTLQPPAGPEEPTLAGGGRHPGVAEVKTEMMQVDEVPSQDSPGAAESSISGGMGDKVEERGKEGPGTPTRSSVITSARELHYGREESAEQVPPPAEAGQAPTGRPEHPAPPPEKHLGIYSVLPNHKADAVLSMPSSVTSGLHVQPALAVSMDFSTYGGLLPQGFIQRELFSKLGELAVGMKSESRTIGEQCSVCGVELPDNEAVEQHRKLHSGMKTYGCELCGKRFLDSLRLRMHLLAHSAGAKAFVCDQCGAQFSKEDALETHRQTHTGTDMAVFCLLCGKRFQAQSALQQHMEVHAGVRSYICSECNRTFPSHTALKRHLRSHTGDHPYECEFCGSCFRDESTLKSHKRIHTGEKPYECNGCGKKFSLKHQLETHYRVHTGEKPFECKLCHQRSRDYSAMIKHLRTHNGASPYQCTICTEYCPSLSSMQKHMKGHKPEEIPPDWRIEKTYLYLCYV
Test: surface plasmon resonance (OpenSPR, ZBTB16 immobilised by EDC/NHS)
Format: binding

## C[C@@H]1CC[C@@]2(OC1)O[C@H]1C[C@H]3[C@@H]4CC=C5C[C@@H](O[C@@H]6O[C@H](CO)[C@@H](O[C@@H]7O[C@@H](CO)[C@H](O)[C@H]7O)[C@H](O)[C@H]6O[C@@H]6O[C@@H](C)[C@H](O)[C@@H](O)[C@H]6O)CC[C@]5(C)[C@H]4CC[C@]3(C)[C@H]1[C@@H]2C [Polyphyllin I]
  Kd: 5.5 µM

Reference: publication PMC11344421, “Polyphyllin I exerts anti-hepatocellular carcinoma activity by targeting ZBTB16 to activate the PPARγ/RXRα signaling pathway” (Chinese Medicine, 2024)
